Source: article PMC9418190, “UDP-glucose, cereblon-dependent proinsulin degrader” (Scientific Reports, 2022)

Target: T1, cereblon (Mus musculus, UniProt Q8C7D2)
T1 construct: gene Crbn
T1 sequence (Q8C7D2 1-445): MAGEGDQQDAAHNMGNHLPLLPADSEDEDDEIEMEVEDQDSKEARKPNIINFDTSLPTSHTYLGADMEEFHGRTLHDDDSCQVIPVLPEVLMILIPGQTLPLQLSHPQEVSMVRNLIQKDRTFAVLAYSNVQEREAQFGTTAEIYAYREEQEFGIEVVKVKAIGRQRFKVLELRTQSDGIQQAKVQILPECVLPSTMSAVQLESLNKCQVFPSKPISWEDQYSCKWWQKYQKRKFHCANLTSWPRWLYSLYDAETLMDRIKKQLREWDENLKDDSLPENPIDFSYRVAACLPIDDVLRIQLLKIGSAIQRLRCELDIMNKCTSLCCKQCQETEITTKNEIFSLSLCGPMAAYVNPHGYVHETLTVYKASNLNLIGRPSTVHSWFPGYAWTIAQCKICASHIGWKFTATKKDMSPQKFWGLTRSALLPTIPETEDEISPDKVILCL
Test: dose-dependent protection of proinsulin from cereblon-dependent degradation in NIT1 cells
Type: cell-based

Structure (SMILES): O=C1CCC(=O)N1 [succinimide]
- dose-dependent protection of proinsulin from cereblon-dependent degradation in N: In fact, succinimide binds to cereblon, protects proinsulin degradation from proinsulin degrader X in a dose-dependent manner
